In US6627408B1, “Antifungal assay” (Cytokinetics, Inc., priority 2000, dated 2003):

Key:
[1] = molecular target: T1, A. nidulans bimC motor domain (Emericella nidulans, UniProt P17120); experiment: ATPase assay of bimC motor domain (ATP hydrolysis, ADP or phosphate readout); format: biochemical, Aspergillus nidulans; conditions: bimC kinesin motor domain; motor domain fragment cloned and expressed in bacteria; FIG. 14
T1 construct: ATPase (bimC kinesin motor domain); made in house; host or cells: bacteria
T1 sequence (P17120 81-416 limits assumed): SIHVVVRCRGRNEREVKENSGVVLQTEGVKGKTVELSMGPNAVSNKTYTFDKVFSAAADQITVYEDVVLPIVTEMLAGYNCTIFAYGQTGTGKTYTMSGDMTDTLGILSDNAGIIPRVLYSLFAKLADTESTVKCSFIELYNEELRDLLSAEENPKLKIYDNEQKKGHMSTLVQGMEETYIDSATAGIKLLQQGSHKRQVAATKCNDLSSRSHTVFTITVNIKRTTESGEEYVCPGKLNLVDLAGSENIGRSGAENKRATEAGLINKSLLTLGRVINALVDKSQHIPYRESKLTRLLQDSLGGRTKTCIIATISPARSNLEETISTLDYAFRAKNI
From the text: FIG. 12 depicts the cloning and expression of A. nidulans bimC motor domain. In Panel A, an overview of the express is shown. The fragment containing the bimC motor domain is indicated by a filled semi-circle. In B, a Coomassie stained gel of the purification of bimC motor domain is shown.
Aspergillus nidulans bimC is a kinesin related protein (KRP) whose gene product encodes an essential mitotic KRP. BimC is the founding member of the bimC subfamily of mitotic kinesins (Morris NR, Enos AP. (1992) Trends Genet 8:1 32-7). Mutants in bimC are blocked in mitosis and arrest with duplicated but unseparated spindle poles. (Enos AP, Morris NR. (1990) Cell 60:6 1019-27). Following the discovery that bimC encodes a KRP, several bimC family members have been identified in diverse organisms ranging from yeast to humans. See. FIG. 1. […]
In a particularly preferred embodiment, a fragment of the bimC protein comprising its hydrolytically active “motor” domain is used. This motor domain has been cloned and expressed in bacteria such that large quantities of biochemically active, substantially pure protein are available (FIG. 12). […]
In a preferred embodiment, activity is measured by the methods disclosed in Serial No. 09/314,464, filed May 18, 1999, which is incorporated herein by reference in its entirety. […] The presence of ADP or inorganic phosphate release is used as the readout for protein activity. […]

fungal tubulin = conditions: cited from earlier work
mammalian tubulin = conditions: cited from earlier work

Structure (SMILES) | IC50 [1] [µM] | inhibition of fungal tubulin (fungal tubulin) | effect on mammalian tubulin (mammalian tubulin)
O=C1OC(c2ccco2)=N/C1=C\c1ccc(Br)s1 [D00018 row 1] | 25 |  | 
CCCCNC(=O)n1c(NC(=O)OC)nc2ccccc21 [benomyl] |  | potent inhibitor | no effect
